Key:
pem1Δpem2Δ-pYES2.1-PkPMT = assay: yeast growth inhibition, pem1Δpem2Δ strain expressing PkPMT; assay type: cell-based; conditions: 100 μM AQ
Method: (§1) Figure 5 PMT-dependent inhibition of growth and PC biosynthesis by amodiaquine and NSC158011. (A–C): Growth curves of pem1Δpem2Δ-pYES2.1-PkPMT (A), pem1Δpem2Δ-pYES2.1-PvPMT (B), or Wild Type-pYES2.1- (C) strains grown in minimal medium containing 4% galactose and 1 mM ethanolamine in the presence or absence of 100 μM choline and 100 μM amodiaquine (AQ) as indicated. Growth curves of pem1Δpem2Δ-pYES2.1-PkPMT (D), pem1Δpem2Δ-pYES2.1-PvPMT (E), or Wild Type-pYES2.1- (F) strains maintained in minimal medium containing 4% galactose and 1 mM ethanolamine in the presence or absence of 100 μM choline and 10 μM NSC158011.
(§2) pem1Δpem2Δ-pYES2.1, pem1Δpem2Δ-pYES2.1-PkPMT, pem1Δpem2Δ-pYES2.1-PvPMT, and pem1Δpem2Δ-pYES2.1-PfPMT yeast strains were pre-grown overnight in uracil dropout synthetic galactose (4%) (SG-URA) medium supplemented with 2 mM ethanolamine (Etn). Cells were diluted to an A600 = 0.001 in fresh SG-URA medium supplemented with 2 mM Etn in the presence or absence of 100 μM Choline (Cho). Cells were grown at 30°C and the growth was monitored by measuring the A600. […]

pem1Δpem2Δ-pYES2.1-PvPMT = assay: yeast growth inhibition, pem1Δpem2Δ strain expressing PvPMT; assay type: cell-based; conditions: 100 μM AQ
Method: as §1, §2

[1] = tested on: PC biosynthesis in pem1Δpem2Δ-pYES2.1-PkPMT; assay: phospholipid analysis of yeast pem1Δpem2Δ strain expressing PkPMT; assay type: cell-based; conditions: 200 μM AQ
Method: Figure 6 PMT-dependent inhibition of PC biosynthesis by AQ and NSC158011. To assess the effect of AQ on phospholipid metabolism, […] and wild-type strains were grown in minimal medium containing 4% galactose and 2 mM ethanolamine in the absence or presence of 200 μM AQ, lipids were extracted and separated by TLC (A). Each lipid class was scrapped off the TLC plate and quantified by measuring phosphorus (B). The effect of NSC158011 on phospholipid biosynthesis was determined by [33P] orthophosphoric acid labeling as described in Material and Methods. Lipids were separated by TLC (C) and quantified by liquid scintillation spectrometry (D). For all assays, data were used to calculate the PC/PI + PA ratio. The data are represented as the mean ± S.D. of at least two independent experiments.
BY4741-pYes2.1 (wild-type) strains and the pem1Δpem2Δ strains harboring pYES2.1 vector, pYES2.1-PkPMT, pYES2.1-PvPMT or pYES2.1-PfPMT were pre-grown to mid-log phase at 30°C in SG-URA medium supplemented with Etn (2 mM) and Cho (2 mM). […] Each lipid class was excised from the plate and quantified by measuring phosphorus. […] After the growth, lipids were extracted and analyzed as described above. […] The resolved radioactive lipids were visualized by Phosphorimager (GE Typhoon) and quantified by liquid scintillation spectrometry as described.

PfPMT = tested on: PfPMT; parameters: method as in PMID 20085640, PMID 24145416; conditions: cited from earlier work
[2] = ethanolamine medium without choline

Structure (SMILES): CCN(CC)Cc1cc(Nc2ccnc3cc(Cl)ccc23)ccc1O [AQ, amodiaquine]
- growth of pem1Δpem2Δ+PkPMT strain in media supplemented with choline (pem1Δpem2Δ-pYES2.1-PkPMT; 100 μM choline): no effect
- growth of pem1Δpem2Δ+PkPMT strain (pem1Δpem2Δ-pYES2.1-PkPMT; [2]): significantly inhibited
- growth of pem1Δpem2Δ+PvPMT strain in media supplemented with choline (pem1Δpem2Δ-pYES2.1-PvPMT; 100 μM choline): no effect
- growth of pem1Δpem2Δ+PvPMT strain (pem1Δpem2Δ-pYES2.1-PvPMT; [2]): significantly inhibited
- effect on the synthesis of PE [1]: little to no effect
- mode of inhibition of PfPMT (PfPMT): non-competitive inhibitors

— PMC4357015, “Structure, Function and Inhibition of the Phosphoethanolamine Methyltransferases of the Human Malaria Parasites Plasmodium vivax and Plasmodium knowlesi” (Scientific Reports, 2015)
